From patent US8980911B2, “Heterocyclic compounds as protein kinase inhibitors” (Daiichi Sankyo Company, Limited, priority 2011, dated 2015)

Assays:
Type in all cases: biochemical
JAK1 = target: T1, JAK1 (Homo sapiens, UniProt P23458); assay: In vitro enzyme assay (cell-free HTRF kinase assay), JAK1; conditions: catalytic domain aa 850-1154, GST-tag; ATP 60 μM, SRCtide 400 nM, reaction 120 min
T1 construct: JAK1 (aa 850-1154) and TYK2 (aa 871-1187) are expressed with an N-terminally fused GST-tag; GST (N); purchased Carna Bioscience, Inc; host or cells: baculovirus expression system
Description: (§1) Kinase buffer [50 mM HEPES (pH 7.5), 1 mM EGTA, 10 mM MgCl2, 2 mM DTT and 0.01% Tween-20) was prepared and dilutions of a compound of formula (I) and other reagents were subsequently made in it. Two times concentrated compound of formula (I) solution: A compound of formula (I) was diluted to 100-fold final concentration in DMSO, followed by 50-fold dilution with Kinase buffer (1% DMSO final concentration). Four times concentrated Substrate/ATP mix solution: Biotin-SRCtide and ATP were diluted to 4-fold final concentration in Kinase buffer. Biotin-SRCtide solution (purchased from Anaspec) was mixed with ATP solution (1:1). Four times concentrated Enzyme solution: JAK1 or JAK2 or JAK3 or TYK2 enzyme [Human baculo virus expressed JAK1, JAK2, JAK3 and TYK2 were purchased from Carna Bioscience, Inc. All enzymes only contain the catalytic domain. JAK1 (aa 850-1154) and TYK2 (aa 871-1187) are expressed with an N-terminally fused GST-tag, and JAK2 and JAK3 with an N-terminally fused His-tag] was diluted to 4-fold final concentration in Kinase buffer and always kept on ice. Detection buffer: LANCE detection buffer (10 times concentrated) was diluted 10-fold in H2O. Four times concentrated stop solution: EDTA was diluted to a concentration of 40 mM in detection buffer. Four times concentrated ULight/Eu-antibody (from Perkin Elmer) mix solution: ULight-Streptavidin was diluted to a concentration of 100 nM (25 ng/mL final concentrations) and Eu-anti-phospho-Tyrosine (PT66) (from Perkin Elmer) was diluted to a concentration of 8 nM (2 ng/mL final concentration) in detection buffer.
(§2) Cell-free in vitro kinase assay was performed in 384 well plates. Two times concentrated compound solution (5 μL) was pipetted into a HTS 384SV Small Volume Plate. Four times concentrated Substrate/ATP mix (2.5 μL) solution was added along with 4 times concentrated Enzyme solution (2.5 μL). Plate was covered with TopSeal-A and incubated at room temperature for indicated time (Table 3). Four times concentrated Stop solution (5 μL, 10 mM final concentration) was added and incubated for 5 minutes at room temperature. Four times concentrated ULight/Eu-antibody mix solution (5 μL) was added and again plate was covered with TopSeal and incubated overnight at 4° C. TopSeal was removed and HTRF signal was measured at 615 nm and […] (excitation at 320 or 340 nm) on Tecan M1000 Multi mode plate reader. Ratio (665 nm/615 nm)×10^4 was calculated and IC50 values were deduced from Graph-pad prism 4.2.

JAK2 = target: T2, JAK2 (Homo sapiens, UniProt O60674); assay: In vitro enzyme assay (cell-free HTRF kinase assay), JAK2; conditions: catalytic domain, His-tag; ATP 10 μM, SRCtide 25 nM, reaction 30 min
T2 construct: All enzymes only contain the catalytic domain; His (N); purchased Carna Bioscience, Inc; host or cells: baculovirus expression system
Description: as §1, §2

JAK3 = target: T3, JAK3 (Homo sapiens, UniProt P52333); assay: In vitro enzyme assay (cell-free HTRF kinase assay), JAK3; conditions: catalytic domain, His-tag; ATP 3 μM, SRCtide 100 nM, reaction 30 min
T3 construct: All enzymes only contain the catalytic domain; His (N); purchased Carna Bioscience, Inc; host or cells: baculovirus expression system
Description: as §1, §2

T3 sequence (P52333 822-1111 limits assumed): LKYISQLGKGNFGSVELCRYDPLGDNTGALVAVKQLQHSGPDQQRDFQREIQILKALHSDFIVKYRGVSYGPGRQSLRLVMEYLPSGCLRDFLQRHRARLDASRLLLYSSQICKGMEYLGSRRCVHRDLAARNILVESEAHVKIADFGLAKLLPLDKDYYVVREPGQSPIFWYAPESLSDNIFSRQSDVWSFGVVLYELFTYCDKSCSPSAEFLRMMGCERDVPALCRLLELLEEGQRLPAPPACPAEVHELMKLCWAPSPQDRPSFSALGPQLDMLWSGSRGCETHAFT
T1 sequence (P23458 850-1154): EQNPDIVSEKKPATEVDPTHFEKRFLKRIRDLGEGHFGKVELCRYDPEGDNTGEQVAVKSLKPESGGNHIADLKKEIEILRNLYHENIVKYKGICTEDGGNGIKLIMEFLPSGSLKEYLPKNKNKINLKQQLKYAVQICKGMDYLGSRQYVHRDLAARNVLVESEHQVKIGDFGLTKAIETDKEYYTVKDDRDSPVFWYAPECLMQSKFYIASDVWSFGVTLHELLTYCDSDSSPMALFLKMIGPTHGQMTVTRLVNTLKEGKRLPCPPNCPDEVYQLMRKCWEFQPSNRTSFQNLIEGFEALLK
T2 sequence (O60674 849-1124 limits assumed): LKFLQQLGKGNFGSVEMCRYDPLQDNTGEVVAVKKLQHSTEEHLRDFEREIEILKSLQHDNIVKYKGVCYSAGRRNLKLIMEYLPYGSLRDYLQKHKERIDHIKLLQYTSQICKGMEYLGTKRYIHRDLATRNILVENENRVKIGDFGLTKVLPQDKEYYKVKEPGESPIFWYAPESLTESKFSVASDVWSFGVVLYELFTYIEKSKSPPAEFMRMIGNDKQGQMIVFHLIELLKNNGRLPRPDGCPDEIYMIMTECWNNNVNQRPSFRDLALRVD

Row | Structure (SMILES) | IC50 (JAK1) [nM] | IC50 (JAK2) [nM] | IC50 (JAK3) [nM]
1 | CN(C)CCNC(=O)c1cc(F)c(C(=O)c2c[nH]c3c(NC(=O)C4CC4)nccc23)c(F)c1 [Compound No. 63, 4-({7-[(Cyclopropylcarbonyl)amino]-1H-pyrrolo[2,3-c]pyridin-3-yl}carbonyl)-N-[2-(dimethylamino)ethyl]-3,5-difluorobenzamide] | < 500 | < 500 | < 500
2 | CCOCCCNC(=O)c1cc(F)c(C(=O)c2c[nH]c3c(NC(=O)C4CC4)nccc23)c(F)c1 [Compound No. 64, 4-({7-[(Cyclopropylcarbonyl)amino]-1H-pyrrolo[2,3-c]pyridin-3-yl}carbonyl)-N-(3-ethoxypropyl)-3,5-difluorobenzamide] | < 500 | < 1000 | < 1000
3 | CNCc1cc(Cl)c(C(=O)c2c[nH]c3c(NC(=O)C4CC4)nccc23)c(Cl)c1 [Compound No. 66, N-(3-{2,6-Dichloro-4-[(methylamino)methyl]benzoyl}-1H-pyrrolo[2,3-c]pyridin-7-yl)cyclopropanecarboxamide] | < 100 | < 100 | < 50
4 | CCNCc1cc(Cl)c(C(=O)c2c[nH]c3c(NC(=O)C4CC4)nccc23)c(Cl)c1 [Compound No. 67, N-(3-{2,6-Dichloro-4-[(ethylamino)methyl]benzoyl}-1H-pyrrolo[2,3-c]pyridin-7-yl)cyclopropanecarboxamide] | < 100 | < 500 | < 100
5 | O=C(Nc1nccc2c1ccn2C(=O)c1c(Cl)cccc1Cl)C1CC1 [Compound No. 77, N-[1-(2,6-Dichlorobenzoyl)-1H-pyrrolo[3,2-c]pyridin-4-yl]cyclopropanecarboxamide] | < 1000 | < 500 | < 500
6 | N#Cc1cc(Cl)c(C(=O)n2ccc3c(NC(=O)C4CC4)nccc32)c(Cl)c1 [Compound No. 86, N-[1-(2,6-Dichloro-4-cyanobenzoyl)-1H-pyrrolo[3,2-c]pyridin-4-yl]cyclopropanecarboxamide] | < 1000 | < 500 | < 500
7 | Cc1noc(C)c1-c1cc(Cl)c(C(=O)n2ccc3c(NC(=O)C4CC4)nccc32)c(Cl)c1 [Compound No. 87, N-{1-[2,6-Dichloro-4-(3,5-dimethyl-1,2-oxazol-4-yl)benzoyl]-1H-pyrrolo[3,2-c]pyridin-4-yl}cyclopropanecarboxamide] | < 500 | < 100 | < 1000
8 | O=C(Nc1nccc2c1ccn2C(=O)c1c(Cl)cc(-c2cncnc2)cc1Cl)C1CC1 [Compound No. 89, N-{1-[2,6-Dichloro-4-(pyrimidin-5-yl)benzoyl]-1H-pyrrolo[3,2-c]pyridin-4-yl}cyclopropanecarboxamide] | < 1000 | < 50 | < 500
9 | CCNC(=O)c1cc(Cl)c(C(=O)n2ccc3c(NC(=O)C4CC4)nccc32)c(Cl)c1 [Compound No. 93, 3,5-Dichloro-4-({4-[(cyclopropylcarbonyl)amino]-1H-pyrrolo[3,2-c]pyridin-1-yl}carbonyl)-N-ethylbenzamide] | < 500 | < 1000 | < 1000
10 | N#Cc1cc(Cl)c(C(=O)n2ccc3cnccc32)c(Cl)c1 [Compound No. 95, 3,5-Dichloro-4-(1H-pyrrolo[3,2-c]pyridin-1-ylcarbonyl)benzonitrile] | < 1000 | < 500 | < 500
11 | O=C(Nc1nccc2c1ccn2C(=O)c1c(Cl)cc(CO)cc1Cl)C1CC1 [Compound No. 96, N-{1-[2,6-Dichloro-4-(hydroxymethyl)benzoyl]-1H-pyrrolo[3,2-c]pyridin-4-yl}cyclopropanecarboxamide] | < 1000 | < 500 | < 500
12 | CCNC(=O)Nc1cc(Cl)c(C(=O)n2ccc3c(NC(=O)C4CC4)nccc32)c(Cl)c1 [Compound No. 103, N-(1-{2,6-Dichloro-4-[(ethylcarbamoyl)amino]benzoyl}-1H-pyrrolo[3,2-c]pyridin-4-yl)cyclopropanecarboxamide] | < 1000 | < 500 | < 500
13 | CC(C)NC(=O)c1cc(Cl)c(C(=O)n2ccc3c(NC(=O)C4CC4)nccc32)c(Cl)c1 [Compound No. 107, 3,5-Dichloro-4-({4-[(cyclopropylcarbonyl)amino]-1H-pyrrolo[3,2-c]pyridin-1-yl}carbonyl)-N-(propan-2-yl)benzamide] | < 500 | < 500 | < 500
14 | COCCNC(=O)Nc1cc(Cl)c(C(=O)n2ccc3c(NC(=O)C4CC4)nccc32)c(Cl)c1 [Compound No. 111, N-[1-(2,6-Dichloro-4-{[(2-methoxyethyl)carbamoyl]amino}benzoyl)-1H-pyrrolo[3,2-c]pyridin-4-yl]cyclopropanecarboxamide] | < 1000 | < 500 | < 500
15 | CN(CCO)C(=O)Nc1cc(Cl)c(C(=O)n2ccc3c(NC(=O)C4CC4)nccc32)c(Cl)c1 [Compound No. 112, N-[1-(2,6-Dichloro-4-{[(2-hydroxyethyl)(methyl)carbamoyl]amino}benzoyl)-1H-pyrrolo[3,2-c]pyridin-4-yl]cyclopropanecarboxamide] | < 1000 | < 500 | < 500
16 | O=C(Nc1cc(Cl)c(C(=O)n2ccc3c(NC(=O)C4CC4)nccc32)c(Cl)c1)NC1CC1 [Compound No. 113, N-(1-{2,6-Dichloro-4-[(cyclopropylcarbamoyl)amino]benzoyl}-1H-pyrrolo[3,2-c]pyridin-4-yl)cyclopropanecarboxamide] | < 1000 | < 500 | < 500
17 | O=C(NCCO)Nc1cc(Cl)c(C(=O)n2ccc3c(NC(=O)C4CC4)nccc32)c(Cl)c1 [Compound No. 115, N-[1-(2,6-Dichloro-4-{[(2-hydroxyethyl)carbamoyl]amino}benzoyl)-1H-pyrrolo[3,2-c]pyridin-4-yl]cyclopropanecarboxamide] | < 1000 | < 500 | < 500
18 | O=C(Nc1cc2c(ccn2C(=O)c2c(Cl)cccc2Cl)cn1)C1CC1 [Compound No. 120, N-[1-(2,6-Dichlorobenzoyl)-1H-pyrrolo[3,2-c]pyridin-6-yl]cyclopropanecarboxamide] | < 100 | < 50 | < 50
19 | CN(C)CCNC(=O)c1cc(Cl)c(C(=O)n2ccc3c(NC(=O)C4CC4)nccc32)c(Cl)c1 [Compound No. 122, 3,5-Dichloro-4-({4-[(cyclopropylcarbonyl)amino]-1H-pyrrolo[3,2-c]pyridin-1-yl}carbonyl)-N-[2-(dimethylamino)ethyl]benzamide] | < 1000 | < 500 | < 100
20 | NCCNC(=O)c1cc(Cl)c(C(=O)n2ccc3c(NC(=O)C4CC4)nccc32)c(Cl)c1 [Compound No. 127, N-(2-Aminoethyl)-3,5-dichloro-4-({4-[(cyclopropylcarbonyl)amino]-1H-pyrrolo[3,2-c]pyridin-1-yl}carbonyl)benzamide] | < 500 | < 100 | < 50
21 | CCNC(=O)c1cc(Cl)c(C(=O)n2ccc3cnc(NC(=O)C4CC4)cc32)c(Cl)c1 [Compound No. 130, 3,5-dichloro-4-({6-[(cyclopropylcarbonyl)amino]-1H-pyrrolo[3,2-c]pyridin-1-yl}carbonyl)-N-ethylbenzamide] | < 500 | < 50 | < 100
22 | N#Cc1cc(Cl)c(C(=O)n2ccc3cnc(NC(=O)C4CC4)cc32)c(Cl)c1 [Compound No. 137, N-[1-(2,6-dichloro-4-cyanobenzoyl)-1H-pyrrolo[3,2-c]pyridin-6-yl]cyclopropanecarboxamide] | < 500 | < 50 | < 500
23 | CCOC(=O)[C@H](C)NC(=O)c1cc(Cl)c(C(=O)n2ccc3c(NC(=O)C4CC4)nccc32)c(Cl)c1 [Compound No. 141, Ethyl N-[3,5-dichloro-4-({4-[(cyclopropylcarbonyl)amino]-1H-pyrrolo[3,2-c]pyridin-1-yl}carbonyl)benzoyl]alaninate] | < 1000 | < 1000 | < 1000
